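48-hour exposure; five concentrations; linearly interpolated endpoints. Abbreviation: GI50, concentration required for 50% inhibition of growth.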 Calls of active or inactive are those of the source. No stated cut-off is given here; in the data, active = GI50 up to about 1.1 µM and inactive = higher.
Key:
Assay in all cases: DTP human tumour cell line panel, 48 h
SNB-19 = tested on: SNB-19
SK-MEL-28 = tested on: SK-MEL-28
COLO 205 = tested on: COLO 205
SN12C = tested on: SN12C
M14 = tested on: M14
SW-620 = tested on: SW-620
IGROV-1 = tested on: IGROV-1
NCI-H226 = tested on: NCI-H226
A498 = tested on: A498
UACC-62 = tested on: UACC-62
Hs-578T = tested on: Hs-578T
786-0 = tested on: 786-0
NCI-H23 = tested on: NCI-H23
T47D = tested on: T47D
KM12 = tested on: KM12
MCF7 = tested on: MCF7
RPMI-8226 = tested on: RPMI-8226
NCI/ADR-RES = tested on: NCI/ADR-RES
OVCAR-4 = tested on: OVCAR-4
NCI-H522 = tested on: NCI-H522

| Structure (SMILES) | GI50 (SNB-19) | GI50 (SK-MEL-28) | GI50 (COLO 205) | GI50 (SN12C) | GI50 (M14) | GI50 (SW-620) | GI50 (IGROV-1) | GI50 (NCI-H226) | GI50 (A498) | GI50 (UACC-62) | GI50 (Hs-578T) | GI50 (786-0) | GI50 (NCI-H23) | GI50 (T47D) | GI50 (KM12) | GI50 (MCF7) | GI50 (RPMI-8226) | GI50 (NCI/ADR-RES) | GI50 (OVCAR-4) | GI50 (NCI-H522) |
| --- | --- | --- | --- | --- | --- | --- | --- | --- | --- | --- | --- | --- | --- | --- | --- | --- | --- | --- | --- | --- |
| O=C(c1cccs1)N(C(=O)N1CCCCC1)c1ccccc1 | > 100 µM (inactive) | > 100 µM (inactive) | > 100 µM (inactive) | > 100 µM (inactive) | > 100 µM (inactive) | > 100 µM (inactive) | > 100 µM (inactive) | > 100 µM (inactive) | > 100 µM (inactive) | > 100 µM (inactive) | 84.7 µM (inactive) | > 100 µM (inactive) | > 100 µM (inactive) | > 100 µM (inactive) | > 100 µM (inactive) | > 100 µM (inactive) | > 100 µM (inactive) | > 100 µM (inactive) |  |  |
| O=C(Cn1c2c(c3ccccc31)CCCC2)N1CCCCC1 | > 100 µM (inactive) | > 100 µM (inactive) | > 100 µM (inactive) | > 100 µM (inactive) | > 100 µM (inactive) | > 100 µM (inactive) | > 100 µM (inactive) |  |  | > 100 µM (inactive) | > 100 µM (inactive) | > 100 µM (inactive) | > 100 µM (inactive) |  |  | > 100 µM (inactive) | > 100 µM (inactive) | > 100 µM (inactive) | > 100 µM (inactive) |  |
| CCC/C=C/C=C/C1CC(O)C(O)C(=O)C1CO (stereo not drawn) | > 100 µM (inactive) | > 100 µM (inactive) | > 100 µM (inactive) | > 100 µM (inactive) | > 100 µM (inactive) | > 100 µM (inactive) | > 100 µM (inactive) | > 100 µM (inactive) |  | > 100 µM (inactive) | > 100 µM (inactive) | > 100 µM (inactive) | > 100 µM (inactive) | > 100 µM (inactive) | > 100 µM (inactive) | > 100 µM (inactive) | > 100 µM (inactive) | > 100 µM (inactive) | > 100 µM (inactive) | 55.2 µM (inactive) |
| COC(=O)CCc1c(Cc2ccc[nH]2)[nH]c(C(=O)OCc2ccccc2)c1C | 28.2 µM (inactive) | 20.1 µM (inactive) | 17.5 µM (inactive) | 18.1 µM (inactive) | 16.8 µM (inactive) | 21.6 µM (inactive) | 15.6 µM (inactive) | 17.1 µM (inactive) | 28.9 µM (inactive) | 26.4 µM (inactive) | 22.6 µM (inactive) | 16.3 µM (inactive) | 21.2 µM (inactive) |  | 16.3 µM (inactive) | 18.5 µM (inactive) | 39.6 µM (inactive) | 20.6 µM (inactive) | 11.9 µM (inactive) | 27.3 µM (inactive) |
| Cc1ccc(/N=N/NCCCCN/N=N/c2ccc(C)cc2)cc1 |  | > 100 µM (inactive) | 35.4 µM (inactive) | > 100 µM (inactive) | 8.05 µM (inactive) | > 100 µM (inactive) | 12.5 µM (inactive) | > 100 µM (inactive) | 54.6 µM (inactive) | > 100 µM (inactive) | > 100 µM (inactive) |  | 9.25 µM (inactive) | 11.5 µM (inactive) |  | 78.3 µM (inactive) |  | > 100 µM (inactive) | > 100 µM (inactive) |  |
| Cc1cn(C2CC(O)C(Cn3nncc3Cn3ncc(=O)[nH]c3=O)O2)c(=O)[nH]c1=O (stereo not drawn) | > 100 µM (inactive) | > 100 µM (inactive) | > 100 µM (inactive) | > 100 µM (inactive) | > 100 µM (inactive) | > 100 µM (inactive) | > 100 µM (inactive) | > 100 µM (inactive) | > 100 µM (inactive) | > 100 µM (inactive) | > 100 µM (inactive) |  | > 100 µM (inactive) | > 100 µM (inactive) | > 100 µM (inactive) | > 100 µM (inactive) | > 100 µM (inactive) | > 100 µM (inactive) | > 100 µM (inactive) |  |
| CCOC(=O)c1csc(NC(=O)CN(C)C)n1 | > 100 µM (inactive) | > 100 µM (inactive) | > 100 µM (inactive) |  | > 100 µM (inactive) | > 100 µM (inactive) | > 100 µM (inactive) | > 100 µM (inactive) | > 100 µM (inactive) | > 100 µM (inactive) | > 100 µM (inactive) |  | > 100 µM (inactive) | > 100 µM (inactive) | > 100 µM (inactive) | > 100 µM (inactive) | > 100 µM (inactive) | > 100 µM (inactive) | > 100 µM (inactive) |  |
| O=C(NC1CCCCC1)c1cc2ccccc2cc1O | 31.1 µM (inactive) | 49.3 µM (inactive) | 53.1 µM (inactive) |  | 21.9 µM (inactive) | 35.2 µM (inactive) | 35.5 µM (inactive) | 17.3 µM (inactive) | 25.4 µM (inactive) | 27 µM (inactive) | 36.2 µM (inactive) | 26.3 µM (inactive) |  | 42.6 µM (inactive) | 34.2 µM (inactive) | 39.2 µM (inactive) | 17.7 µM (inactive) | 17.7 µM (inactive) | 20.3 µM (inactive) |  |
| O=C(CC(=O)N(C(=O)c1ccccc1)c1ccc(Cl)cc1)N/N=C\c1cc(/N=N/c2ccccc2Cl)ccc1O | 18.2 µM (inactive) | > 100 µM (inactive) | > 100 µM (inactive) | 42.5 µM (inactive) | > 100 µM (inactive) | > 100 µM (inactive) | > 100 µM (inactive) | > 100 µM (inactive) | 31.3 µM (inactive) | 70.5 µM (inactive) | 20 µM (inactive) | 38.1 µM (inactive) | > 100 µM (inactive) | 51.6 µM (inactive) | 26.3 µM (inactive) | > 100 µM (inactive) | 68.2 µM (inactive) | > 10 µM (inactive) |  |  |
| CC1(C)CC(=O)C2=C(C1)NC(=S)C(C#N)C2c1ccccc1 (stereo not drawn) | > 100 µM (inactive) | > 100 µM (inactive) | > 100 µM (inactive) | > 100 µM (inactive) | > 100 µM (inactive) | > 100 µM (inactive) | > 100 µM (inactive) | > 100 µM (inactive) |  | > 100 µM (inactive) | > 100 µM (inactive) | > 100 µM (inactive) | > 100 µM (inactive) |  |  | > 100 µM (inactive) |  | > 100 µM (inactive) | > 100 µM (inactive) | > 100 µM (inactive) |
| CC(C)(C)C(=O)C(N)C(=O)C(C)(C)C | > 100 µM (inactive) | > 100 µM (inactive) | > 100 µM (inactive) | > 100 µM (inactive) | > 100 µM (inactive) | > 100 µM (inactive) |  |  |  | > 100 µM (inactive) | > 100 µM (inactive) | > 100 µM (inactive) |  | > 100 µM (inactive) | > 100 µM (inactive) | > 100 µM (inactive) | > 100 µM (inactive) | > 100 µM (inactive) | > 100 µM (inactive) | > 100 µM (inactive) |
| O=C(Nn1c(-c2ccccc2)nc2ccccc2c1=O)c1cccc([N+](=O)[O-])c1 | 61.1 µM (inactive) | 79.6 µM (inactive) | 54.3 µM (inactive) | > 100 µM (inactive) | > 100 µM (inactive) | > 100 µM (inactive) | > 100 µM (inactive) | 52.8 µM (inactive) | 48.9 µM (inactive) | 29.2 µM (inactive) | 95.3 µM (inactive) | > 100 µM (inactive) | 57.1 µM (inactive) | < 0.01 µM (active) | > 100 µM (inactive) | 38 µM (inactive) | 46.8 µM (inactive) |  | 86.1 µM (inactive) | 67 µM (inactive) |
| Nc1ncnc2c1ncn2Cc1cccc(CCl)c1 |  | 19.8 µM (inactive) |  | 15.1 µM (inactive) | 14.1 µM (inactive) | 12.4 µM (inactive) | 16.3 µM (inactive) | 16 µM (inactive) | 15.2 µM (inactive) | 12.8 µM (inactive) | 22.8 µM (inactive) | 14.4 µM (inactive) | 12.6 µM (inactive) |  | 15.1 µM (inactive) | 10 µM (inactive) | 5.38 µM (inactive) | 18.5 µM (inactive) | 20.3 µM (inactive) | 15.1 µM (inactive) |
| COc1cc(/C=C2\N=C(c3ccccc3)N(/N=C/c3cc4cc(C)ccc4nc3Cl)C2=O)cc(OC)c1OC | 64.7 µM (inactive) | 91.6 µM (inactive) | 24.5 µM (inactive) | 61.8 µM (inactive) | 39.4 µM (inactive) | 41.2 µM (inactive) | 33.3 µM (inactive) |  | 28.1 µM (inactive) | 32.1 µM (inactive) | 29.4 µM (inactive) | 60.4 µM (inactive) |  | 18 µM (inactive) | 31.8 µM (inactive) | 27.4 µM (inactive) | 20.5 µM (inactive) | 28 µM (inactive) | 37.5 µM (inactive) |  |
| COC(c1ccc(C(C)(C)C)cc1)(c1ccc(C(C)(C)C)cc1)c1cc(C(O)(c2cc(C(OC)(c3ccc(C(C)(C)C)cc3)c3ccc(C(C)(C)C)cc3)c(C)cc2C)c2cc(C(OC)(c3ccc(C(C)(C)C)cc3)c3ccc(C(C)(C)C)cc3)c(C)cc2C)c(C)cc1C |  | > 100 µM (inactive) | > 100 µM (inactive) |  | > 100 µM (inactive) | > 100 µM (inactive) | > 100 µM (inactive) | 92.5 µM (inactive) | > 100 µM (inactive) | > 100 µM (inactive) | > 100 µM (inactive) |  | > 100 µM (inactive) | > 100 µM (inactive) |  | > 100 µM (inactive) |  | > 100 µM (inactive) | > 100 µM (inactive) |  |
| [O-][S+](Nc1ccccc1)c1ccc(-c2ccccc2)cc1 (stereo not drawn) | > 100 µM (inactive) | > 100 µM (inactive) | 72.3 µM (inactive) | > 100 µM (inactive) |  | > 100 µM (inactive) | > 100 µM (inactive) | > 100 µM (inactive) |  | 47.4 µM (inactive) | > 100 µM (inactive) | > 100 µM (inactive) | > 100 µM (inactive) | 11.5 µM (inactive) | 58.6 µM (inactive) | > 100 µM (inactive) | > 100 µM (inactive) | > 100 µM (inactive) | 38.1 µM (inactive) | > 100 µM (inactive) |

— ChEMBL document CHEMBL1201862, “PubChem BioAssay data set” (2004)
